Common to all, as to assay type: in vivo
What all share (details): rated 30 days after application

The test system of data set [1] is Scirpus juncoides. In words: Submersion test, treatment 3 days after transplantation: herbicidal effect. The protocol: (§1) A mixture consisting of 57 parts by weight of talc and 40 parts by weight of bentonite as carrier and 3 parts by weight of sodium alkylbenzenesulfonate as surfactant was pulverized and mixed uniformly to obtain a carrier for wettable powder. Each herbicidal composition was prepared by uniformly pulverizing and mixing 90 parts by weight of the carrier for wettable powder and 10 parts by weight of the benzothiophene derivative produced in each example.
(§2) Seeds of Scirpus juncoides were sowed onto paddy field soil in a Wagner pot of 1/2000 are. Then, rice seedlings of 2.5 leaf stage were transplanted in the soil. Water was pored into the pot so as to submerge the soil at a depth of 3 cm. The pot was placed in a greenhouse maintained at 20 to 25° C. for vegetation. After 3 days from transplantation of the rice seedlings, a predetermined amount of the herbicidal composition prepared in the step [1] was applied to the pot. After 30 days from the application of the herbicidal composition, the herbicidal effect and injury to the paddy rice were determined.
(§3) The herbicidal effect and the injury to crops in the above tests (1) and (2) were evaluated based on the following ratings.
(§4) The degree of weed control (%) was calculated from the weights of the above-ground parts of fresh weeds in the treated area and the untreated area using the following equation:
(§5) Degree of weed control (%)=[1−(weight of weeds in treated area)/(weight of weeds in untreated area)]×100
(§6) The herbicidal effect was determined according to the following ratings: […]

The test system of the next data set is paddy rice. Description: Submersion test, treatment 3 days after transplantation: injury to paddy rice. Also noted: key: 0: No injury; 1: Substantially no injury; 2: Slight injury; 3: Some injury; 4: Remarkable injury; 5: Almost all crops dead. The procedure: A mixture consisting of 57 parts by weight of talc and 40 parts by weight of bentonite as carrier and 3 parts by weight of sodium alkylbenzenesulfonate as surfactant was pulverized and mixed uniformly to obtain a carrier for wettable powder. […] Then, rice seedlings of 2.5 leaf stage were transplanted in the soil. Water was pored into the pot so as to submerge the soil at a depth of 3 cm. The pot was placed in a greenhouse maintained at 20 to 25° C. for vegetation. […] After 30 days from the application of the herbicidal composition, the herbicidal effect and injury to the paddy rice were determined. […] The injury to crops was evaluated according to the following ratings: [table]

The test system of data set [2] is Scirpus juncoides. In words: Submersion test, treatment 10 days after transplantation: herbicidal effect. The protocol: as §1
as §2, with “vegetation. After 10 days from” for “vegetation. After 3 days from”
as §3, §4, §5, §6

The structures appear in SMILES notation.

Turning to `CO/N=C/CSC1Cc2c(ccc(C(=O)C3C(=O)CCCC3=O)c2Cl)S1(=O)=O` (single isomer, unassigned) [Compound No. 8, 4-chloro-2-(2-methoxyiminoethyl)thio-5-(1,3-dioxocyclohex-2-yl)carbonyl-2,3-dihydrobenzothiophene 1,1-dioxide], the “Herbicidal effect Scirpus juncoides” value is 4 (70% or higher but less than 90%) with Scirpus juncoides [1] (application rate 100 g/ha), 5 (90% or higher (almost completely dead)) in the data set with Scirpus juncoides [1] (application rate 200 g/ha), 5 (90% or higher (almost completely dead)) in the data set with Scirpus juncoides [2] (application rate 100 g/ha) and 5 (90% or higher (almost completely dead)) in the data set on Scirpus juncoides [2] (application rate 200 g/ha). Besides, the Injury paddy rice with paddy rice (application rate 100 g/ha) and in the data set with paddy rice (application rate 200 g/ha) was 0 each time.

For the molecule `C[S+]([O-])C1Cc2c(ccc(C(=O)C3=C(Cl)CCCC3=O)c2Cl)S1(=O)=O` (single isomer, unassigned) [Compound No. 28, 4-chloro-2-methanesulfinyl-5-(3-chloro-1-oxo-2-cyclohexen-2-yl)carbonyl-2,3-dihydrobenzothiophene 1,1-dioxide], the “Herbicidal effect Scirpus juncoides” value in the data set with Scirpus juncoides [1] (application rate 100 g/ha), in the data set on Scirpus juncoides [1] (application rate 200 g/ha), in the data set with Scirpus juncoides [2] (application rate 100 g/ha) and with Scirpus juncoides [2] (application rate 200 g/ha) was 5 (90% or higher (almost completely dead)) in each case. The Injury paddy rice in the data set with paddy rice (application rate 100 g/ha) and in the data set on paddy rice (application rate 200 g/ha) was 0 throughout.

With `CS(=O)(=O)c1ccc(C(=O)C2=C(Sc3ccccc3)C3CCC(C3)C2=O)c(Cl)c1` (stereo not drawn) [(B), reference compound], the “Herbicidal effect Scirpus juncoides” value in the data set on Scirpus juncoides [1] (application rate 100 g/ha) is 3 (40% or higher but less than 70%); with Scirpus juncoides [1] (application rate 200 g/ha), 4 (70% or higher but less than 90%); in the data set with Scirpus juncoides [2] (application rate 100 g/ha), 2 (20% or higher but less than 40%); in the data set on Scirpus juncoides [2] (application rate 200 g/ha), 3 (40% or higher but less than 70%). The Injury paddy rice with paddy rice (application rate 100 g/ha) and in the data set with paddy rice (application rate 200 g/ha) was 0 each time.

On to `CCSC1Cc2c(ccc(C(=O)C3C(=O)CCCC3=O)c2Cl)S1(=O)=O` (stereo not drawn) [Compound No. 2, 4-chloro-2-ethylthio-5-(1,3-cdioxocyclohex-2-yl)carbonyl-2,3-cdihydrobenzothiophene 1,1-dioxide], for which the “Herbicidal effect Scirpus juncoides” value in the data set with Scirpus juncoides [1] (application rate 100 g/ha), with Scirpus juncoides [1] (application rate 200 g/ha), in the data set with Scirpus juncoides [2] (application rate 100 g/ha) and with Scirpus juncoides [2] (application rate 200 g/ha) was 5 (90% or higher (almost completely dead)) each time. Besides, the Injury paddy rice with paddy rice (application rate 100 g/ha) and in the data set with paddy rice (application rate 200 g/ha) was 0 each time.

As for `COCCSC1Cc2c(ccc(C(=O)C3C(=O)CCCC3=O)c2Cl)S1(=O)=O` (stereo not drawn) [Compound No. 5, 4-chloro-2-(2-methoxyethyl)thio-5-(1,3-dioxocyclohex-2-yl)carbonyl-2,3-dihydrobenzothiophene 1,1-dioxide], the “Herbicidal effect Scirpus juncoides” value with Scirpus juncoides [1] (application rate 100 g/ha), with Scirpus juncoides [1] (application rate 200 g/ha), with Scirpus juncoides [2] (application rate 100 g/ha) and in the data set on Scirpus juncoides [2] (application rate 200 g/ha) was 5 (90% or higher (almost completely dead)) in each case. For the same molecule, the Injury paddy rice in the data set on paddy rice (application rate 100 g/ha) and in the data set with paddy rice (application rate 200 g/ha) was 0 throughout.

In the case of `CS(=O)(=O)C1Cc2c(ccc(C(=O)C3C(=O)CCCC3=O)c2Cl)S1(=O)=O` (stereo not drawn) [Compound No. 15, 4-chloro-2-methanesulfonyl-5-(1,3-dioxocyclohex-2-yl)carbonyl-2,3-dihydrobenzothiophene 1,1-dioxide], the “Herbicidal effect Scirpus juncoides” value in the data set on Scirpus juncoides [1] (application rate 100 g/ha) is recorded as 5 (90% or higher (almost completely dead)); in the data set with Scirpus juncoides [1] (application rate 200 g/ha), 5 (90% or higher (almost completely dead)); in the data set on Scirpus juncoides [2] (application rate 100 g/ha) it was 4 (70% or higher but less than 90%); in the data set on Scirpus juncoides [2] (application rate 200 g/ha), 5 (90% or higher (almost completely dead)). Also, the Injury paddy rice in the data set with paddy rice (application rate 100 g/ha) and in the data set on paddy rice (application rate 200 g/ha) was 0 throughout.

In the case of `CSC1Cc2c(ccc(C(=O)C3=C(Cl)CCCC3=O)c2Cl)S1(=O)=O` (stereo not drawn) [Compound No. 17, 4-chloro-2-methylthio-5-(3-chloro-1-oxo-2-cyclohexen-2-yl)carbonyl-2,3-dihydrobenzothiophene 1,1-dioxide], the “Herbicidal effect Scirpus juncoides” value in the data set with Scirpus juncoides [1] (application rate 100 g/ha), with Scirpus juncoides [1] (application rate 200 g/ha), in the data set on Scirpus juncoides [2] (application rate 100 g/ha) and in the data set with Scirpus juncoides [2] (application rate 200 g/ha) was 5 (90% or higher (almost completely dead)) each time. Moreover, the Injury paddy rice in the data set with paddy rice (application rate 100 g/ha) and in the data set with paddy rice (application rate 200 g/ha) was 0 throughout.

`CS(=O)(=O)C1Cc2c(ccc(C(=O)C3=C(Cl)CCCC3=O)c2Cl)S1(=O)=O` (stereo not drawn) [Compound No. 18, 4-chloro-2-methanesulfonyl-5-(3-chloro-1-oxo-2-cyclohexen-2-yl)carbonyl-2,3-dihydrobenzothiophene 1,1-dioxide]: the “Herbicidal effect Scirpus juncoides” value in the data set with Scirpus juncoides [1] (application rate 100 g/ha) was 4 (70% or higher but less than 90%); with Scirpus juncoides [1] (application rate 200 g/ha), 5 (90% or higher (almost completely dead)); in the data set with Scirpus juncoides [2] (application rate 100 g/ha) it was 4 (70% or higher but less than 90%); in the data set on Scirpus juncoides [2] (application rate 200 g/ha), 5 (90% or higher (almost completely dead)). Also, the Injury paddy rice in the data set on paddy rice (application rate 100 g/ha) and in the data set with paddy rice (application rate 200 g/ha) was 0 throughout.

Take `CCSC1Cc2c(ccc(C(=O)C3=C(Cl)CCCC3=O)c2Cl)S1(=O)=O` (stereo not drawn) [Compound No. 19, 4-chloro-2-ethylthio-5-(3-chloro-1-oxo-2-cyclohexen-2-yl)carbonyl-2,3-dihydrobenzothiophene 1,1-dioxide]: the “Herbicidal effect Scirpus juncoides” value with Scirpus juncoides [1] (application rate 100 g/ha) was 5 (90% or higher (almost completely dead)); with Scirpus juncoides [1] (application rate 200 g/ha) it was 5 (90% or higher (almost completely dead)); in the data set with Scirpus juncoides [2] (application rate 100 g/ha), 4 (70% or higher but less than 90%); in the data set on Scirpus juncoides [2] (application rate 200 g/ha) it was 5 (90% or higher (almost completely dead)). Also, the Injury paddy rice in the data set on paddy rice (application rate 100 g/ha) and in the data set on paddy rice (application rate 200 g/ha) was 0 in each case.

For the molecule `COCCSC1Cc2c(ccc(C(=O)C3=C(Cl)CCCC3=O)c2Cl)S1(=O)=O` (stereo not drawn) [Compound No. 25, 4-chloro-2-(2-methoxyethyl)thio-5-(3-chloro-1-oxo-2-cyclohexen-2-yl)carbonyl-2,3-dihydrobenzothiophene 1,1-dioxide], the “Herbicidal effect Scirpus juncoides” value with Scirpus juncoides [1] (application rate 100 g/ha) is listed as 4 (70% or higher but less than 90%); with Scirpus juncoides [1] (application rate 200 g/ha) it was 5 (90% or higher (almost completely dead)); in the data set on Scirpus juncoides [2] (application rate 100 g/ha), 4 (70% or higher but less than 90%); in the data set with Scirpus juncoides [2] (application rate 200 g/ha) it was 5 (90% or higher (almost completely dead)). Further, the Injury paddy rice in the data set with paddy rice (application rate 100 g/ha) and in the data set on paddy rice (application rate 200 g/ha) was 0 in each case.

Consider `COC(=O)CSC1Cc2c(ccc(C(=O)C3=C(Cl)CCCC3=O)c2Cl)S1(=O)=O` (stereo not drawn) [Compound No. 27, 4-chloro-2-(methoxycarbonylmethyl)thio-5-(3-chloro-1-oxo-2-cyclohexen-2-yl)carbonyl-2,3-dihydrobenzothiophene 1,1-dioxide], for which the “Herbicidal effect Scirpus juncoides” value in the data set on Scirpus juncoides [1] (application rate 100 g/ha) is given as 4 (70% or higher but less than 90%); with Scirpus juncoides [1] (application rate 200 g/ha), 5 (90% or higher (almost completely dead)); in the data set on Scirpus juncoides [2] (application rate 100 g/ha), 4 (70% or higher but less than 90%); in the data set with Scirpus juncoides [2] (application rate 200 g/ha), 5 (90% or higher (almost completely dead)). For the same molecule, the Injury paddy rice in the data set with paddy rice (application rate 100 g/ha) and in the data set on paddy rice (application rate 200 g/ha) was 0 throughout.

With `CSC1Cc2c(ccc(C(=O)C3=C(SCCO)CCCC3=O)c2Cl)S1(=O)=O` (stereo not drawn) [Compound No. 31, 4-chloro-2-methylthio-5-[3-(2-hydroxyethyl)thio-1-oxo-2-cyclohexen-2-yl]carbonyl-2,3-dihydrobenzothiophene 1,1-dioxide], the “Herbicidal effect Scirpus juncoides” value in the data set on Scirpus juncoides [1] (application rate 100 g/ha), in the data set on Scirpus juncoides [1] (application rate 200 g/ha), in the data set on Scirpus juncoides [2] (application rate 100 g/ha) and with Scirpus juncoides [2] (application rate 200 g/ha) was 5 (90% or higher (almost completely dead)) throughout. Besides, the Injury paddy rice in the data set with paddy rice (application rate 100 g/ha) and in the data set on paddy rice (application rate 200 g/ha) was 0 throughout.

The record behind these values is patent US20040058957A1, “Benzothiophene derivatives and herbicidal compositions containing the same” (priority 2000, published 2004).
